From ChEMBL document CHEMBL1201862, “PubChem BioAssay data set” (2004)
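Where inhibition never reached the appropriate level, the endpoint shown equals the highest concentration tested. Otherwise, values were interpolated linearly from a five-concentration, 48-hour dose response in 96-well plates. GI50 = concentration required for 50% inhibition of growth.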 Active and inactive are the calls of the source. Rule as the data show it: active = GI50 up to about 1.1 µM and inactive = higher.

Experiments:
Assay in all cases: inhibition of tumour cell growth, NCI panel, 48 h
ACHN = system: ACHN
HCC 2998 = system: HCC 2998
HCT-15 = system: HCT-15
HOP-92 = system: HOP-92
M14 = system: M14
M19-MEL = system: M19-MEL
NCI-H522 = system: NCI-H522
OVCAR-4 = system: OVCAR-4
RPMI-8226 = system: RPMI-8226
SK-MEL-28 = system: SK-MEL-28
TK-10 = system: TK-10
A549 = system: A549
SF-539 = system: SF-539
SNB-75 = system: SNB-75
DU-145 = system: DU-145
HL-60 = system: HL-60
Hs-578T = system: Hs-578T
MDA-MB-435 = system: MDA-MB-435
MDA-N = system: MDA-N
NCI/ADR-RES = system: NCI/ADR-RES

Structure (SMILES)	GI50 (ACHN)	GI50 (HCC 2998)	GI50 (HCT-15) [µM]	GI50 (HOP-92)	GI50 (M14)	GI50 (M19-MEL)	GI50 (NCI-H522)	GI50 (OVCAR-4)	GI50 (RPMI-8226)	GI50 (SK-MEL-28)	GI50 (TK-10)	GI50 (A549)	GI50 (SF-539)	GI50 (SNB-75)	GI50 (DU-145)	GI50 (HL-60)	GI50 (Hs-578T)	GI50 (MDA-MB-435)	GI50 (MDA-N)	GI50 (NCI/ADR-RES)
CN1C(=O)CN2C(Cl)(Cl)C2(c2ccccc2)c2cc(Cl)ccc21 (configuration not stated)	> 100 µM (inactive)	65.3 µM (inactive)	> 100	13.5 µM (inactive)	> 100 µM (inactive)	> 100 µM (inactive)	31.3 µM (inactive)	> 100 µM (inactive)	> 100 µM (inactive)	> 100 µM (inactive)	> 100 µM (inactive)	–	–	–	–	–	–	–	–	–
CC12CC3(C)CC(C)(C1)CC(N=[N+]=[N-])(C2)C3	> 100 µM (inactive)	> 100 µM (inactive)	–	> 100 µM (inactive)	> 100 µM (inactive)	> 100 µM (inactive)	> 100 µM (inactive)	> 100 µM (inactive)	> 100 µM (inactive)	> 100 µM (inactive)	> 100 µM (inactive)	> 100 µM (inactive)	> 100 µM (inactive)	> 100 µM (inactive)	–	–	–	–	–	–
CN(C)c1ccc(/C=N/c2ccc(Oc3ccc(Cl)cc3)c(Cl)c2)cc1	28.6 µM (inactive)	17.7 µM (inactive)	18.9	18.2 µM (inactive)	28.1 µM (inactive)	–	13.8 µM (inactive)	22.1 µM (inactive)	11.4 µM (inactive)	19.3 µM (inactive)	32.4 µM (inactive)	18.7 µM (inactive)	16.9 µM (inactive)	13.1 µM (inactive)	27.5 µM (inactive)	11.7 µM (inactive)	15.4 µM (inactive)	24.2 µM (inactive)	21.7 µM (inactive)	16.2 µM (inactive)
O=C1C(c2ccc(C3=[N+]([O-])c4cc([N+](=O)[O-])ccc4C3=O)cc2)=[N+]([O-])c2cc([N+](=O)[O-])ccc21	> 10 µM (inactive)	> 10 µM (inactive)	> 10	> 10 µM (inactive)	> 10 µM (inactive)	> 10 µM (inactive)	> 10 µM (inactive)	> 10 µM (inactive)	> 10 µM (inactive)	> 10 µM (inactive)	> 10 µM (inactive)	> 10 µM (inactive)	> 10 µM (inactive)	36.2 µM (inactive)	–	> 10 µM (inactive)	–	–	–	–
Cc1nc(Nc2nc3ccccc3[nH]2)[nH]c(=O)c1CCO	50.9 µM (inactive)	> 100 µM (inactive)	61.9	55.3 µM (inactive)	27.2 µM (inactive)	–	> 100 µM (inactive)	> 100 µM (inactive)	–	> 100 µM (inactive)	39.4 µM (inactive)	> 100 µM (inactive)	39.9 µM (inactive)	> 100 µM (inactive)	61.7 µM (inactive)	75.9 µM (inactive)	20.6 µM (inactive)	> 100 µM (inactive)	> 92 µM (inactive)	> 100 µM (inactive)
COc1ccc(C2C(N)=NCC2c2ccccn2)cc1 (configuration not stated)	> 100 µM (inactive)	> 100 µM (inactive)	–	> 100 µM (inactive)	> 100 µM (inactive)	> 100 µM (inactive)	> 100 µM (inactive)	> 100 µM (inactive)	> 100 µM (inactive)	> 100 µM (inactive)	> 100 µM (inactive)	> 100 µM (inactive)	> 100 µM (inactive)	> 100 µM (inactive)	–	–	–	–	–	–
COc1ccc2[nH]c(Cl)c(/C=C3/C(=O)Nc4cc(C)c(OC)cc43)c2c1	9.53 µM (inactive)	4.89 µM (inactive)	2.91	11.7 µM (inactive)	3.98 µM (inactive)	–	2.9 µM (inactive)	–	4.32 µM (inactive)	9.38 µM (inactive)	9.18 µM (inactive)	5.26 µM (inactive)	0.723 µM (active)	10.8 µM (inactive)	14.3 µM (inactive)	1.91 µM (inactive)	3.81 µM (inactive)	1.23 µM (inactive)	1.58 µM (inactive)	2.44 µM (inactive)
